Measured values published in ChEMBL document CHEMBL4837213, “Hybrids between H2S-donors and betamethasone 17-valerate or triamcinolone acetonide inhibit mast cell degranulation and promote hyperpolarization of bronchial smooth muscle cells” (Eur J Med Chem, 2021).
Active and inactive are the calls of the source. No cut-off for these calls is given here.

Tested on: BSMC
Experiment: (§1) Bronchodilatory activity in human BSMC cells assessed as induction of membrane hyperpolarization at 100 uM by spectrofluorometric analysis relative to NS1619
Format: functional
Conditions: not given
For `Oc1ccc(N=C=S)cc1`, the Activity was “Active”.

Tested on: not listed separately
Experiment: as §1
Format: functional
Conditions: not given
With `CCCCC(=O)O[C@]1(C(=O)COC(=O)CCC(=O)Oc2ccc(N=C=S)cc2)[C@@H](C)C[C@H]2[C@@H]3CCC4=CC(=O)C=C[C@]4(C)[C@@]3(F)[C@@H](O)C[C@@]21C` the “fold change (FC)” value was 4. In the case of `CC1(C)O[C@@H]2C[C@H]3[C@@H]4CCC5=CC(=O)C=C[C@]5(C)[C@@]4(F)[C@@H](O)C[C@]3(C)[C@]2(C(=O)COC(=O)CCC(=O)Oc2ccc(N=C=S)cc2)O1`, the “fold change (FC)” value was 4.

Tested on: not listed separately
Experiment: Drug metabolism in human BSMC cells assessed as intracellular H2S release by measuring increase in fluorescence index at 300 uM measured every 5 mins for 60 mins by WSP-1 dye based spectrofluorometric analysis
Format: ADME, cell-based
Conditions: 1 h
In the case of `NC(=S)c1ccc(O)cc1`, the Drug metabolism was “Metabolite_Detected”. With `CC1(C)O[C@@H]2C[C@H]3[C@@H]4CCC5=CC(=O)C=C[C@]5(C)[C@@]4(F)[C@@H](O)C[C@]3(C)[C@]2(C(=O)COC(=O)CCC(=O)Oc2ccc(-c3cc(=S)ss3)cc2)O1` the Drug metabolism was “Metabolite_Detected”. With `CCCCC(=O)O[C@]1(C(=O)COC(=O)CCC(=O)Oc2ccc(-c3cc(=S)ss3)cc2)[C@@H](C)C[C@H]2[C@@H]3CCC4=CC(=O)C=C[C@]4(C)[C@@]3(F)[C@@H](O)C[C@@]21C` the Drug metabolism was “Metabolite_Notdetected”. For `CCCCC(=O)O[C@]1(C(=O)COC(=O)CCC(=O)Oc2ccc(N=C=S)cc2)[C@@H](C)C[C@H]2[C@@H]3CCC4=CC(=O)C=C[C@]4(C)[C@@]3(F)[C@@H](O)C[C@@]21C`, the Drug metabolism was “Metabolite_Detected”. For `CCCCC(=O)O[C@]1(C(=O)COC(=O)CCC(=O)Oc2ccc(C(N)=S)cc2)[C@@H](C)C[C@H]2[C@@H]3CCC4=CC(=O)C=C[C@]4(C)[C@@]3(F)[C@@H](O)C[C@@]21C`, the Drug metabolism was “Metabolite_Detected”. For `Oc1ccc(-c2cc(=S)ss2)cc1`, the Drug metabolism was “Metabolite_Notdetected”. With `Oc1ccc(N=C=S)cc1` the Drug metabolism was “Metabolite_Detected”. In the case of `CC1(C)O[C@@H]2C[C@H]3[C@@H]4CCC5=CC(=O)C=C[C@]5(C)[C@@]4(F)[C@@H](O)C[C@]3(C)[C@]2(C(=O)COC(=O)CCC(=O)Oc2ccc(C(N)=S)cc2)O1`, the Drug metabolism was “Metabolite_Notdetected”. In the case of `CC1(C)O[C@@H]2C[C@H]3[C@@H]4CCC5=CC(=O)C=C[C@]5(C)[C@@]4(F)[C@@H](O)C[C@]3(C)[C@]2(C(=O)COC(=O)CCC(=O)Oc2ccc(N=C=S)cc2)O1`, the Drug metabolism was “Metabolite_Detected”.

Tested on: not listed separately
Experiment: Inhibition of DNP-HAS-stimulated mast cell degranulation in rat RBL-2H3 cells assessed as reduction in beta-hexosaminidase release at 1 mM incubated for 5 mins followed by DNP-HAS stimulation for 1 hr by multiplate reader analysis
Format: functional
Conditions: RBL-2H3, 1.083 h, time 65 min
Compound `O=C(O)c1cc(=O)c2c(OCC(O)COc3cccc4oc(C(=O)O)cc(=O)c34)cccc2o1` [CROMOLYN] has an inhibition at 1000 µM of 20%.

Tested on: RBL-2H3
Experiment: (§2) Inhibition of DNP-HAS-stimulated mast cell degranulation in rat RBL-2H3 cells assessed as reduction in beta-hexosaminidase release at 300 uM incubated for 5 mins followed by DNP-HAS stimulation for 1 hr by multiplate reader analysis
Format: functional
Conditions: time 65.0 min
For `CC1(C)O[C@@H]2C[C@H]3[C@@H]4CCC5=CC(=O)C=C[C@]5(C)[C@@]4(F)[C@@H](O)C[C@]3(C)[C@]2(C(=O)CO)O1`, the inhibition was “inactive”. With `CCCCC(=O)O[C@]1(C(=O)CO)[C@@H](C)C[C@H]2[C@@H]3CCC4=CC(=O)C=C[C@]4(C)[C@@]3(F)[C@@H](O)C[C@@]21C` the inhibition was “inactive”. For `CCCCC(=O)O[C@]1(C(=O)COC(=O)CCC(=O)Oc2ccc(N=C=S)cc2)[C@@H](C)C[C@H]2[C@@H]3CCC4=CC(=O)C=C[C@]4(C)[C@@]3(F)[C@@H](O)C[C@@]21C`, the inhibition was “Active”. With `CC1(C)O[C@@H]2C[C@H]3[C@@H]4CCC5=CC(=O)C=C[C@]5(C)[C@@]4(F)[C@@H](O)C[C@]3(C)[C@]2(C(=O)COC(=O)CCC(=O)Oc2ccc(N=C=S)cc2)O1` the inhibition was “Active”.

Tested on: not listed separately
Experiment: as §2
Format: functional
Conditions: RBL-2H3, 1.083 h, time 65 min
`Oc1ccc(N=C=S)cc1` showed an inhibition at 300 µM of 75%.

Tested on: not listed separately
Experiment: Drug metabolism in human BSMC cells assessed as intracellular H2S release by measuring increase in fluorescence index at 100 uM measured every 5 mins for 60 mins by WSP-1 dye based spectrofluorometric analysis
Format: ADME, cell-based
Conditions: 1 h
With `NC(=S)c1ccc(O)cc1` the Drug metabolism was “Metabolite_Notdetected”. With `CC1(C)O[C@@H]2C[C@H]3[C@@H]4CCC5=CC(=O)C=C[C@]5(C)[C@@]4(F)[C@@H](O)C[C@]3(C)[C@]2(C(=O)COC(=O)CCC(=O)Oc2ccc(-c3cc(=S)ss3)cc2)O1` the Drug metabolism was “Metabolite_Notdetected”. In the case of `CCCCC(=O)O[C@]1(C(=O)COC(=O)CCC(=O)Oc2ccc(-c3cc(=S)ss3)cc2)[C@@H](C)C[C@H]2[C@@H]3CCC4=CC(=O)C=C[C@]4(C)[C@@]3(F)[C@@H](O)C[C@@]21C`, the Drug metabolism was “Metabolite_Notdetected”. For `CCCCC(=O)O[C@]1(C(=O)COC(=O)CCC(=O)Oc2ccc(N=C=S)cc2)[C@@H](C)C[C@H]2[C@@H]3CCC4=CC(=O)C=C[C@]4(C)[C@@]3(F)[C@@H](O)C[C@@]21C`, the Drug metabolism was “Metabolite_Detected”. With `CCCCC(=O)O[C@]1(C(=O)COC(=O)CCC(=O)Oc2ccc(C(N)=S)cc2)[C@@H](C)C[C@H]2[C@@H]3CCC4=CC(=O)C=C[C@]4(C)[C@@]3(F)[C@@H](O)C[C@@]21C` the Drug metabolism was “Metabolite_Detected”. In the case of `Oc1ccc(-c2cc(=S)ss2)cc1`, the Drug metabolism was “Metabolite_Notdetected”. With `Oc1ccc(N=C=S)cc1` the Drug metabolism was “Metabolite_Detected”. For `CC1(C)O[C@@H]2C[C@H]3[C@@H]4CCC5=CC(=O)C=C[C@]5(C)[C@@]4(F)[C@@H](O)C[C@]3(C)[C@]2(C(=O)COC(=O)CCC(=O)Oc2ccc(C(N)=S)cc2)O1`, the Drug metabolism was “Metabolite_Notdetected”. For `CC1(C)O[C@@H]2C[C@H]3[C@@H]4CCC5=CC(=O)C=C[C@]5(C)[C@@]4(F)[C@@H](O)C[C@]3(C)[C@]2(C(=O)COC(=O)CCC(=O)Oc2ccc(N=C=S)cc2)O1`, the Drug metabolism was “Metabolite_Detected”. In the case of `C=CCSSCC=C` [DIALLYLDISULFIDE], the Drug metabolism was “Metabolite_Detected”.

Tested on: RBL-2H3
Experiment: (§3) Inhibition of DNP-HAS-stimulated mast cell degranulation in rat RBL-2H3 cells assessed as reduction in beta-hexosaminidase release at 100 uM incubated for 5 mins followed by DNP-HAS stimulation for 1 hr by multiplate reader analysis
Format: functional
Conditions: time 65.0 min
In the case of `CCCCC(=O)O[C@]1(C(=O)COC(=O)CCC(=O)Oc2ccc(N=C=S)cc2)[C@@H](C)C[C@H]2[C@@H]3CCC4=CC(=O)C=C[C@]4(C)[C@@]3(F)[C@@H](O)C[C@@]21C`, the inhibition was “Active”. For `CC1(C)O[C@@H]2C[C@H]3[C@@H]4CCC5=CC(=O)C=C[C@]5(C)[C@@]4(F)[C@@H](O)C[C@]3(C)[C@]2(C(=O)COC(=O)CCC(=O)Oc2ccc(N=C=S)cc2)O1`, the inhibition was “Active”.

Tested on: not listed separately
Experiment: as §3
Format: functional
Conditions: RBL-2H3, 1.083 h, time 65 min
With `Oc1ccc(N=C=S)cc1` the inhibition at 100 µM was 75%.

Tested on: BSMC
Experiment: (§4) Bronchodilatory activity in human BSMC cells assessed as induction of membrane hyperpolarization at 300 uM by spectrofluorometric analysis relative to NS1619
Format: functional
Conditions: not given
In the case of `Oc1ccc(N=C=S)cc1`, the Activity was “Active”.

Tested on: not listed separately
Experiment: as §4
Format: functional
Conditions: not given
In the case of `CCCCC(=O)O[C@]1(C(=O)COC(=O)CCC(=O)Oc2ccc(N=C=S)cc2)[C@@H](C)C[C@H]2[C@@H]3CCC4=CC(=O)C=C[C@]4(C)[C@@]3(F)[C@@H](O)C[C@@]21C`, the “fold change (FC)” value was 4. For `CC1(C)O[C@@H]2C[C@H]3[C@@H]4CCC5=CC(=O)C=C[C@]5(C)[C@@]4(F)[C@@H](O)C[C@]3(C)[C@]2(C(=O)COC(=O)CCC(=O)Oc2ccc(N=C=S)cc2)O1`, the “fold change (FC)” value was 4.
